Key:
[1] = system: lectin pathway (MBL) in human serum; assay: Inhibition of activity of lectin pathway (MBL) in human serum (WIESLAB Complement System MBL Pathway kit); assay type: biochemical; conditions: 1% human serum
Method: The inhibition of the activity of the lectin pathway (MBL) in human serum by compounds was detected using a WIESLAB® Complement System MBL Pathway kit (SVAR, COMPLMP320). Test compounds were each serially diluted in a buffer (Diluent MP), and 1% human serum was incubated with the diluted compound solution for 15 min at room temperature. 100 μL of the mixture was added to a microplate and incubated at 37° C. for 60 min. The liquid in the wells was discarded, and the microplate was washed three times with a washing solution. A Conjugate antibody solution was added at 100 μL/well, and the resulting mixture was incubated for 30 min at 25° C. The liquid in the wells was discarded, and the microplate was washed three times with a washing solution; a substrate solution was added at 100 μL/well, and the resulting mixture was incubated for 30 min at 25° C.; the terminator was added at 50 μL/well, and the absorbance at 405 nm was detected within 30 min by using a microplate reader.

[2] = In vivo pharmacokinetic study in SD rats; conditions: clear
Method: After adaptive feeding, the SPF SD rats were each subjected to a single administration of 1 mg/kg or 3 mg/kg of the compound of the present disclosure intragastrically or by tail vein bolus injection. Plasma was collected at specific time points after administration, and the concentration of the compound in plasma was detected by LC-MS/MS (AB Sciex Qtrap 4500).

human α-thrombin = human α-thrombin (Homo sapiens (Human), UniProt P00734); assay: Inhibition of thrombin, fluorescent peptide substrate Boc-VPR-AMC; assay type: biochemical
Method: For thrombin assay, a fluorescent peptide substrate (Boc-VPR-AMC (R&D Systems)) was used and reacted in a buffer containing 20 mM Hepes (pH 7.4), 140 mM NaCl, and 0.1% Tween 20 at room temperature. Assay parameters were adjusted to make the assay linearly related to time, enzyme, and substrate concentration.
The assay method for thrombin is as follows. Test compounds were each serially diluted with a buffer, and then 10 μL of compound solution was transferred to an assay plate. A buffer was added to the assay plate at 10 μL/well, and then a thrombin (human α-thrombin (BioPharm Lab.)) solution was added at 15 μL/well. A Boc-VPR-AMC substrate solution was added at 15 μL/well, and the resulting mixture was incubated for 60 min at 25° C. A terminating solution (0.1 M acetic acid) was added at 15 μL/well, and detection was performed within 30 min by using a SpectraMax i3x microplate reader.

Row | SMILES | IC50 [1] [nM] | AUClast ([2]; 1 mg/kg, IV, not fasting) [µg·h/mL] | Cmax ([2]; 1 mg/kg, IV, not fasting) [ng/mL] | T1/2 ([2]; 1 mg/kg, IV, not fasting) [h] | AUClast ([2]; 1 mg/kg, PO, fasting) [µg·h/mL] | Cmax ([2]; 1 mg/kg, PO, fasting) [ng/mL] | T1/2 ([2]; 1 mg/kg, PO, fasting) [h] | IC50 (human α-thrombin) [nM] | AUClast ([2]; 3 mg/kg, PO, fasting) [µg·h/mL] | Cmax ([2]; 3 mg/kg, PO, fasting) [ng/mL] | T1/2 ([2]; 3 mg/kg, PO, fasting) [h]
1 | C[C@H](NC(=O)[C@H]1C[C@H](Cc2ccc(F)cc2)CN1)C(=O)NC1CCc2nc(N)ccc21 (stereo partly drawn) [Compound L001, (2R,4S)—N-((2S)-1-((2-amino-6,7-dihydro-5H-cyclopenta[b]pyridin-5-yl)amino)-1-oxopropan-2-yl)-4-(4-fluorobenzyl) pyrrolidine-2-carboxamide] | 2.67 | 54.837 ± 1.386 | 7297 ± 154 | 31.1 ± 1.27 | 9.822 ± 0.108 | 1483 ± 41.0 | 10.1 | > 50000 |  |  | 
2 | C[C@H](NC(=O)[C@H]1C[C@H](Cc2ccc(F)cc2)CN1)C(=O)N[C@@H]1CCc2nc(N)ccc21 [Compound L001-IS-01, (2R,4S)—N—((S)-1-(((R)-2-amino-6,7-dihydro-5H-cyclopenta[b]pyridin-5-yl)amino)-1-oxopropan-2-yl)-4-(4-fluorobenzyl) pyrrolidine-2-carboxamide] | 0.52 | 299.766 ± 11.465 | 23267 ± 1538 | 42.4 ± 3.40 |  |  |  | 27400 | 188.265 ± 20.044 | 6070 ± 914 | 43.9 ± 8.44
3 | C[C@H](NC(=O)[C@H]1C[C@H](Cc2ccc(-c3ccccc3)cc2)CN1)C(=O)NC1CCc2nc(N)ccc21 (stereo partly drawn) [Compound L002, (2R,4S)-4-([1,1′-biphenyl]-4-ylmethyl)-N-((2S)-1-((2-amino-6,7-dihydro-5H-cyclopenta[b]pyridin-5-yl)amino)-1-oxopropan-2-yl) pyrrolidine-2-carboxamide] | 2.48 |  |  |  |  |  |  | > 50000 |  |  | 
4 | Nc1ccc2c(n1)CCC2NC(=O)[C@@H]1CCN1C(=O)[C@H]1C[C@H](Cc2ccc(-c3ccccc3)cc2)CN1 (stereo partly drawn) [Compound L027, (2S)-1-(2R,4S)-4-([1,1′-biphenyl]-4-(4-methyl)pyrrolidine-2-carbonyl)-N-(2-amino-6,7-dihydro-5H-cyclopenta[b]pyridin-5-yl) azetidine-2-carboxamide] | 1.43 |  |  |  |  |  |  | 11900 |  |  | 
5 | Nc1ccc2c(n1)CCC2NC(=O)[C@@H]1CCCN1C(=O)[C@H]1C[C@H](Cc2ccc(-c3ccccc3)cc2)CN1 (stereo partly drawn) [Compound L028, (2S)-1-(2R,4S)-4-([1,1′-biphenyl]-4-(4-ylmethyl)pyrrolidine-2-carbonyl)-N-(2-amino-6,7-dihydro-5H-cyclopenta[b]pyridin-5-yl) pyrrolidine-2-carboxamide] | 4.09 |  |  |  |  |  |  | 16600 |  |  | 
6 | Nc1ccc2c(n1)CCC2NC(=O)[C@@H]1CCN1C(=O)[C@H]1C[C@H](Cc2ccc(F)cc2)CN1 (stereo partly drawn) [Compound L030, (2S)—N-(2-amino-6,7-dihydro-5H-cyclopenta[b]pyridin-5-yl)-1-((2R,4S)-4-(4-fluorobenzyl)pyrrolidine-2-carbonyl) azetidine-2-carboxamide] | 1.85 |  |  |  |  |  |  | 10300 |  |  | 

From patent US20250171414A1, “COMPOUND SERVING AS MASP-2 INHIBITOR, PHARMACEUTICAL COMPOSITION, PREPARATION METHOD THEREFOR, AND USE THEREOF” (WUHAN CREATERNA SCIENCE AND TECHNOLOGY CO., LTD., priority 2022, published 2025)
